Source: patent US8536196B2, “Substituted 1,3-dioxanes useful as PPAR modulators” (Evolva SA, priority 2007, dated 2013)

Assays:
[1] = system: mice (FeCl3 induced femoral artery thrombosis); test: FeCl3 arterial thrombosis mouse model (occlusion time, blood flow); format: in vivo
Procedure: The solutions were diluted 3.3-fold in saline and 100 μl/25 g was injected.
During the experiments, a soluble potassium salt of the drug was provided, diluted in saline. Of this formulation, 100 μl/25 g was injected i.v. in the tail vein (dose of 100 mg/kg).
Aspirin is given the same way at a dose of 200 mg/kg. Clopidogrel is administered by oral gavage at a dose of 20 mg/kg at 6-7 hours prior to the experiment. The solutions were coded (except for clopidogrel) and the operator was blinded to the code. The animals assigned to each group were matched for body weight. All mice used were 8-10 weeks old males and were in a 100% Swiss genetic background.
(§1) The flow in each image is expressed as a percentage of that at the contralateral side, and data are averaged for all 120 images to determine total flow. The same analysis is performed for 10 min intervals (which gives essentially the same information as the area under the curve). […] Flow before treatment is recorded as 100%, and that in occluded arteries as 0%. At the end of the experiment, blood is collected on 0.01M citrate by heart puncture for determination of blood cell counts. Plasma is prepared by centrifugation and stored at −20° C. for determination of drug levels.
Statistical analysis for differences between two groups is performed by non-parametric Student t-test. Occlusion times >30 min were considered equal to 30 min for statistical analysis. It should be noted that this approach may result in a statistical bias, the more so because the number of experiments is not the same in the different groups. Significance is set at p<0.05.

[2] = Blood cell analysis at end of thrombosis experiment; format: in vivo, mouse
Procedure: as §1
Table VI summarizes the results of blood cell analysis performed on a sample taken at the end of the observation period. (Z)-6-((2S,4S,5R)-2-(2-chlorophenyl)-4-(2-hydroxyphenyl)-1,3-dioxan-5-yl)hex-4-enoic is referred to in Table VI as EV.

MEFs / 3T3-L1 = test: Adipocyte differentiation induction assay (Oil Red O staining); format: cell-based, mouse; set-up: key to Adip. (adipocyte differentiation): 0: similar results to DPD; −1: even less adipocyte differentiation; +1: more adipocyte differentiation (both relative to DPD); conditions: for Adip. (adipocyte differentiation): relative to DPD (SN1)
Procedure: This example describes an assay for determining adipocyte differention. Compounds are tested to see whether they induce adipocyte differentiation and also to see whether they inhibit adipocyte differention.
MEFs were grown in AmnioMax basal medium (Gibco) supplemented with 7.5% Amniomax supplement C-100 (Gibco), 7.5% Fetal Bovine Serum (FBS), 2 mM Glutamine, 62.5 μg/ml penicillin and 100 μg/ml Streptomycin (growth medium). At confluence, MEFs were induced to differentiation in growth medium with the addition of 1 μM dexamethasone (Sigma) 0.5 mM isobutylmethylxanthine (Sigma), 5 μg/ml insulin (Sigma) and 10 μM test compound dissolved in DMSO or DMSO alone. Medium was subsequently renewed every 48 hrs with growth media supplemented with 5 μg/ml Insulin and ligand or DMSO.
Briefly, to test compounds as inducers of adipocyte differentiation, 3T3-L1 are grown to confluence in DMEM with 10% Calf serum (CS), typically in 24 well dishes. At 2 days post confluence (day 0), cells are induced to differentiate with DMEM supplemented with 10% fetal bovine serum (FBS), 1 μM dexamethasone and the test compound (01, 1 and 10 μM). BRL49653 (1.0 μM dissolved in 100% DMSO) is used as a positive control. After 48 h, the cells are re-fed with DMEM containing 10% FBS supplemented with the test compound or the positive control. From day 4, cells are grown in DMEM with 10% FBS and are changed every second day until day 8. At day 8, cells are stained with Oil Red O as described below.
Cells cultured as described above are used for Oil Red staining. Dishes are washed in PBS and cells were fixed in 3.7% paraformaldehyde for 1 h and stained with oil red O as described in (Hansen et al 1999). Oil red O solution stock solution is prepared by dissolving 0.5 g of Oil Red O (Sigma) in 100 mL of isopropanol. Oil re 0 working solution is prepared by diluting a stock solution with water (6:4) followed by filtration.
Table II summarizes results obtained with different analogs of DPD (SN1), “0” representing similar results to DPD, “−1” representing even less adipocyte differentiation, “+1” representing more adipocyte differentiation (both relative to DPD) and “−” meaning not assayed.

Gal4-PPARgammaLBD = target: T1, Gal4-PPARgammaLBD (Homo sapiens, UniProt P37231); test: PPARgamma transactivation assay (Gal4-PPARgammaLBD, UASx4-TK-luc reporter); format: cell-based; conditions: for PPAR (PPARgamma activating activity): level of activity relative to 10 μM DPD (SN1)
T1 construct: expressed in transfected cells; host or cells: mouse embryonic fibroblasts (MEFs) or ME3 cells
T1 sequence (P37231 204-505): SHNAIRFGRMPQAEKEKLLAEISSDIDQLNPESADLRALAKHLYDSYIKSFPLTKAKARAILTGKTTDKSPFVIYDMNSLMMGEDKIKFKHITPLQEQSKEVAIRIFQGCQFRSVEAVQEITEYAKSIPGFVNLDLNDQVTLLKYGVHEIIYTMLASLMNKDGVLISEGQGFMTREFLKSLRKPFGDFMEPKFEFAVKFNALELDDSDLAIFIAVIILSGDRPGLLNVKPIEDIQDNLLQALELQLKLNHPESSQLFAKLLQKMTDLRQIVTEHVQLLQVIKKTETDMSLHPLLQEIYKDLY
Description: This is an example of a transactivation assay for determining PPAR gamma modulating activity.
The UASx-4-TK-luc reporter construct (where UAS refers to “upstream activator sequence”) contains four Gal4-responsive elements. The plasmid Gal4-PPARgammaLBD encodes a Gal4-DBD-PPARgamma-LBD fusion protein (i.e. the DNA-binding domain, DBD, of Gal4 fused to the ligand-binding domain, LBD, of PPARgamma) capable of transactivating the UASx-4-TK-luc reporter plasmid by binding to the UAS. The CMV-beta-galactosidase plasmid (where CMV is cytomegalovirus) is used for normalization of experimental values.
The cells were replated, typically in 24 well plates, so that at the time of transfection the cells are 50-70% confluent.
Briefly, per well in a 24 well plate, UASx4TKIuc (0.2 μg) Gal4-PPARgammaLBD (or pM-hPPARgamma-LBD; 0.1 μg) and CMV-beta-galactosidase (0.05 μg) in 30 μL DMEM (free of serum and antibiotics) is mixed with 30 μL DMEM (free of serum and antibiotics) containing 1 μL metafectenein. The mixture is incubated at room temperature for 20 min to allow formation of nucleic acid-lipid complexes and then approximately 60 μL is added to each well containing the 50-60% confluent cells. […] Cells were harvested after 12-24 hours and luciferase and beta-galactosidase activities were measured according to standard protocols.
“−” means that testing was not performed.

[3] = Aspirin 200 mg/kg i.v., n = 7, mean ± SEM
[4] = Clopidogrel 20 mg/kg oral gavage, n = 6, mean ± SEM

## O=C([O-])CC/C=C\C[C@@H]1CO[C@H](c2ccccc2Cl)O[C@@H]1c1ccccc1O.[K+] [(Z)-6-((2S,4S,5R)-2-(2-chlorophenyl)-4-(2-hydroxyphenyl)-1,3-dioxan-5-yl(hex-4-enoic potassium]
[1]; 100 mg/kg in saline i.v.
  blood flow, time window 0-10 min: significantly higher blood flow as compared to either saline alone (p=0.009) or to aspirin (p=0.0006)
  occlusion time: prolonged the occlusion time
  total blood flow: significantly improved total blood flow as compared to either saline (p=0.0032) or aspirin (p=0.0021)

## CC(=O)Oc1ccccc1C(=O)O [Aspirin, reference compound]
[1]; 200 mg/kg i.v. in the tail vein
  occlusion time: no effect
[1]; 200 mg/kg i.v., versus vehicle
  total blood flow: no significant effect
[2]; [3]
  Hematocrit: 72 ± 0.60%
  Hemoglobin: 15 ± 0.19 g/dL
  Lymphocytes: 60 ± 11%
  Neutrophils: 39 ± 11%
  Platelets: 1020 ± 59 ×10^3/μl
  Red blood cells: 9.3 ± 0.10 ×10^6/μl
  White blood cells: 1.4 ± 0.42 ×10^3/μl

## COC(=O)[C@H](c1ccccc1Cl)N1CCc2sccc2C1 [Clopidogrel, reference compound]
[1]; 20 mg/kg oral gavage 6-7 hours prior to the experiment, 30 min observation
  occlusion: totally prevents occlusion within 30 min in 6/7 experiments
[1]; 20 mg/kg oral gavage, versus vehicle
  total blood flow: significantly improved total blood flow
[2]; [4]
  Hematocrit: 72 ± 2.7%
  Hemoglobin: 15 ± 0.60 g/dL
  Lymphocytes: 47 ± 7.8%
  Neutrophils: 50 ± 7.2%
  Platelets: 1060 ± 106 ×10^3/μl
  Red blood cells: 9.0 ± 0.36 ×10^6/μl
  White blood cells: 0.62 ± 0.22 ×10^3/μl

## COc1ccccc1[C@@H]1O[C@H](c2ccccc2Cl)OC[C@@H]1C/C=C\CCC(=O)O [Compound 4, (Z)-6-((2R,4R,5S)-2-(2-chlorophenyl)-4-(2-methoxyphenyl)-1,3-dioxan-5-yl)hex-4-enoic acid]
MEFs / 3T3-L1
  Adip. (adipocyte differentiation): 0

## COc1ccccc1[C@H]1O[C@@H](c2ccccc2Cl)OC[C@H]1C/C=C\CCC(=O)O [Compound 5, (Z)-6-((2S,4S,5R)-2-(2-chlorophenyl)-4-(2-methoxyphenyl)-1,3-dioxan-5-yl)hex-4-enoic acid]
MEFs / 3T3-L1
  Adip. (adipocyte differentiation): 0

## O=C(O)CC/C=C\C[C@@H]1CO[C@H](c2ccccc2Cl)O[C@@H]1c1ccccc1O [compound 1]
MEFs / 3T3-L1
  Adip. (adipocyte differentiation): 0

## O=C(O)CC/C=C\C[C@@H]1COC(c2cccc(Cl)c2Cl)O[C@@H]1c1ccccc1O (stereo partly shown) [compound 2]
MEFs / 3T3-L1
  Adip. (adipocyte differentiation): 0

## O=C(O)CC/C=C\C[C@@H]1COC2(CCCCC2)O[C@@H]1c1ccccc1O [compound 6]
MEFs / 3T3-L1
  Adip. (adipocyte differentiation): 0

## COc1ccc(Oc2ccccc2C2OC[C@@H](C/C=C\CCC(=O)O)[C@@H](c3ccccc3O)O2)cc1 (stereo partly shown) [compound 7]
Gal4-PPARgammaLBD
  PPARgamma activity (summary in words): higher potency
MEFs / 3T3-L1
  adipocyte differentiation (summary in words): low or no adipocyte differentiation
  Adip. (adipocyte differentiation): 0

## O=C(O)CC/C=C\C[C@@H]1COC2(CCNCC2)O[C@@H]1c1ccccc1O [compound 8]
Gal4-PPARgammaLBD
  PPAR (PPARgamma activating activity): Boc de- rivative Inactive
MEFs / 3T3-L1
  Adip. (adipocyte differentiation): −1

## O=C(O)CC/C=C\C[C@@H]1COC(c2cccc3ccccc23)O[C@@H]1c1ccccc1O (stereo partly shown) [compound 9]
MEFs / 3T3-L1
  Adip. (adipocyte differentiation): 0

## O=C(O)CC/C=C\C[C@@H]1COC(c2ccccc2-c2ccccc2)O[C@@H]1c1ccccc1O (stereo partly shown) [compound 10]
Gal4-PPARgammaLBD
  PPARgamma activity (summary in words): PPARgamma antagonist
  PPAR (PPARgamma activating activity): Antagonist
MEFs / 3T3-L1
  Adip. (adipocyte differentiation): 0

## CCCCCC1OC[C@@H](C/C=C\CCC(=O)O)[C@@H](c2ccccc2O)O1 (stereo partly shown) [compound 11]
MEFs / 3T3-L1
  Adip. (adipocyte differentiation): +1

## C/C=C/CC1OC[C@@H](C/C=C\CCC(=O)O)[C@@H](c2ccccc2O)O1 (stereo partly shown) [compound 12]
MEFs / 3T3-L1
  Adip. (adipocyte differentiation): −1

## COc1ccccc1[C@H]1OC[C@@H](C/C=C\CCC(=O)O)[C@@H](c2ccccc2O)O1 [compound 18]
MEFs / 3T3-L1
  Adip. (adipocyte differentiation): −1

## COc1cccc([C@H]2OC[C@@H](C/C=C\CCC(=O)O)[C@@H](c3ccccc3O)O2)c1OC [compound 19]
MEFs / 3T3-L1
  Adip. (adipocyte differentiation): 0

## CC(C)[C@H]1OC[C@@H](C/C=C\CCC(=O)O)[C@@H](c2ccccc2O)O1 [compound 20]
MEFs / 3T3-L1
  Adip. (adipocyte differentiation): 0

## O=C(O)CC/C=C\C[C@@H]1CO[C@H](C2CCCCC2)O[C@@H]1c1ccccc1O [compound 21]
MEFs / 3T3-L1
  Adip. (adipocyte differentiation): 0

## O=C(O)CCC/C=C\C[C@@H]1CO[C@H](c2ccccc2Cl)O[C@@H]1c1ccccc1O [compound 23]
MEFs / 3T3-L1
  Adip. (adipocyte differentiation): +1

## COc1ccccc1[C@H]1OC(c2ccccc2Cl)OC[C@H]1C/C=C\CCC(=O)O (stereo partly shown) [compound 27]
Gal4-PPARgammaLBD
  PPAR (PPARgamma activating activity): Inactive

## COc1ccccc1[C@H]1O[C@@H](c2c(Cl)cccc2Cl)OC[C@H]1C/C=C\CCC(=O)O [compound 28]
Gal4-PPARgammaLBD
  PPAR (PPARgamma activating activity): Inactive

## O=C(O)CCCCCCC[C@@H]1CO[C@H](c2ccccc2Cl)O[C@@H]1c1ccccc1O [compound 31]
MEFs / 3T3-L1
  Adip. (adipocyte differentiation): 0

## CC1(C)OC[C@@H](C/C=C\CCCCC(=O)O)[C@@H](c2ccccc2O)O1 [compound 36]
Gal4-PPARgammaLBD
  PPAR (PPARgamma activating activity): Inactive
